Measurements published in patent US20240277743A1, “RESTORING PHYSIOLOGY WITH SMALL MOLECULE MIMICS OF MISSING PROTEINS” (The Board of Trustees Of The University Of Illinois, priority 2014, published 2024).

System: trk1Δtrk2Δ cells
Assay: Disc diffusion assay of growth rescue
Assay type: cell-based, Saccharomyces cerevisiae
Details: paper disc impregnated with AmB; FIG. 2C
Description: Disc diffusion assay. The assay was performed as previously described. National Committee for Clinical Laboratory Standards in Performance Standards for Antimicrobial Disk Susceptibility Tests; M2-A8 Approved Standard (NCCLS, Wayne) (2003).

## C[C@@H]1[C@H](O)[C@@H](C)/C=C/C=C/C=C/C=C/C=C/C=C/C=C/[C@H](O[C@@H]2O[C@H](C)[C@@H](O)[C@H](N)[C@@H]2O)C[C@@H]2O[C@](O)(C[C@@H](O)C[C@@H](O)[C@H](O)CC[C@@H](O)C[C@@H](O)CC(=O)O[C@H]1C)C[C@H](O)[C@H]2C(=O)O [AmB, amphotericin B]
  growth rescue in disc diffusion assay: dependence of the growth rescue on the concentration of AmB
